According to publication PMC11672547, “Combination of Coevolutionary Information and Supervised Learning Enables Generation of Cyclic Peptide Inhibitors with Enhanced Potency from a Small Data Set” (ACS Central Science, 2024):
Read-outs that look alike come from different tables or passages of the source. Values belong to the compound of their own block, whether it stands above or below them. Numbered stars: 1 amine (or outer) side, 2 acyl side, 3 side chain; on linkers, the order of the positions; unused ones are H or OH. Bridge positions count the residues as written; N and C are the ends. Peptide text beside a SMILES is read from it. TBMB = c1c(C[*:1])cc(C[*:3])cc1C[*:2]

Key:
[1] = biological target: T1, human urokinase-type plasminogen activator (huPA) (Homo sapiens, UniProt P00749); assay: huPA inhibition, fluorogenic enzyme activity assay (Z-Gly-Gly-Arg-AMC), Ki by Cheng-Prusoff; format: biochemical; details: 25 °C
T1 construct: (UPA-LMW, Molecular Innovations, Novi, MI, USA) 1.5 nM; purchased Molecular Innovations UPA-LMW
Description: bicyclic peptides. The activity assay was performed by incubating […] huPA with 50 μM fluorogenic substrate Z-Gly-Gly-Arg-AMC (50 μM; Bachem, Bubendorf, Switzerland) and […]
NaCl, 10 mM MgCl2, 1mM CaCl2, 0.1% w/v BSA, 0.01% v/v Triton-X100 and 5% v/v DMSO.
The measurements were performed on a Tecan microplate reader (Tecan infinite 200 pro, Tecan Trading AG, Switzerland) using black microfluor 96-well plate Nunc MicroWell, (Thermo Fisher Scientific, Dreieich, Germany) The enzymatic reactions were performed at 25 °C for 30 min, under shacking with an excitation wavelength of 355 nm and an emission recording at 460 nm. The initial velocities were monitored as changes in fluorescence intensity. The sigmoidal curves were fitted to the data using the following non-linear regression equation for the inhibitory dose-response curves with variable slope (2): […]
where x is the peptide concentration, y is the residual percentage of protease activity and p is the hill slope. Half maximum inhibitory concentration (IC50) values were derived from the fitted curves from GraphPad Prism 8 8.0.0. software (GraphPad software, Inc., San Diego, California). The final Ki was subsequently determined using the Cheng-Prusoff equation (3): […]
where Km (115 μM) is the Michaelis constant for the hydrolysis of Z-Gly-Gly-Arg-AMC catalysed by huPA which has been determined by standard Michaelis-Menten equation.
Values were determined using either OriginPro 8G software (OriginLab Corporation, Northamppton, MA, USA) or GraphPad Prism 8.0.0. software (GraphPad software, Inc., San […]
Recombinant production of the catalytic domain of human urokinase-type […]
The low molecular weight (LMW) human urokinase-type plasminogen activator (huPA) comprising the truncated 23 amino acid peptide fragment of chain A (Lys136-Lys158 in […]

[2] = biological target: T1, human urokinase-type plasminogen activator (huPA); details: UK140 family of 31 phage-encoded bicyclic peptides; cited from earlier work
human factor XIIa = biological target: T2, human factor XIIa (Homo sapiens, UniProt P00748); assay: Specificity determination, residual protease activity (fluorogenic substrate); format: biochemical; details: 25 °C, pH 7.4, Z-Gly-Gly-Arg-AMC 50 μM
T2 construct: human factor XIIa (IHFXIIa, Innovative Research,; purchased Innovative Research IHFXIIa
T2 sequence (P00748 373-615 limits assumed): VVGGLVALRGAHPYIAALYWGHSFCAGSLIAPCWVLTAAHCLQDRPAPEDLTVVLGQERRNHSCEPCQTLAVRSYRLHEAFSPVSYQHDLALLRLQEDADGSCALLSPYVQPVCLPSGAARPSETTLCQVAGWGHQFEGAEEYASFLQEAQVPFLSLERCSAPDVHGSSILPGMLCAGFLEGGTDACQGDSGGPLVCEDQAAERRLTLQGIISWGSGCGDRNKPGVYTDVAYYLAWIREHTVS
T2 sequence (P00748 20-372 partner limits assumed): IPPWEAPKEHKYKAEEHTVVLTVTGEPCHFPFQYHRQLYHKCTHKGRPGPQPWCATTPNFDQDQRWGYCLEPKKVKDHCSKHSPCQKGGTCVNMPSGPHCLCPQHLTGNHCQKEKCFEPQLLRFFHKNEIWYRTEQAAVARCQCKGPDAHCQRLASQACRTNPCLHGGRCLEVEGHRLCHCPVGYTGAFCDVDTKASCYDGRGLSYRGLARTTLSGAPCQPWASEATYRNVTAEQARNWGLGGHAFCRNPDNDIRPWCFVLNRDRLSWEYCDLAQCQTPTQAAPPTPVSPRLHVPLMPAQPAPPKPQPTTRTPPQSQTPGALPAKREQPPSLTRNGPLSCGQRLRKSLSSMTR
Description: (§1) 5% v/v DMSO. Final concentrations of serine proteases were the following: human uPA (UPA-LMW, Molecular Innovations, Novi, MI, USA) 1.5 nM, mouse uPA (MUPA-LMW, Molecular Innovations, Novi, MI, USA) 12 nM, human tPA (HTPATC; Molecular Innovations, Novi, MI, USA) 7.5 nM, mouse tPA (MTPA, Molecular Innovations, Novi, MI, USA) 6 nM, human trypsin (HTRYP, Molecular Innovations, Novi, MI, USA) 0.05 nM, human plasmin (HPLM, Molecular Innovations, Novi, MI, USA) 1.5 nM, human plasma kallikrein (IHPKA, Innovative Research, Novi, MI, USA) 0.5 nM, human thrombin (IHT, Innovative Research, Novi, MI, USA) 10 nM, and human factor XIIa (IHFXIIa, Innovative Research, Novi, MI, USA) 6 nM. Two-fold dilutions of UK970 bicyclic peptide inhibitor were prepared ranging from 1 mM to 125 nM for all the proteases. For human uPA an extra two-fold UK970 inhibitor dilution experiment was performed by using inhibitor concentrations ranging from 2000 nM to 0.12 nM. For the determination of the Ki inhibitory constants, the following fluorogenic substrates were used at final concentration of 50 μM: Z-Gly-Gly-Arg-AMC (for human uPA, murine uPA, human tPA, murine tPA, human trypsin, human thrombin and human factor XIIa; Bachem, Bubendorf, Switzerland), Z-Phe-Arg-AMC (for human plasma kallikrein; Bachem, Bubendorf, Switzerland) and H-D-Val-Leu-Lys-AMC (for human plasmin; Bachem, Bubendorf, Switzerland). The initial velocities were monitored as changes in fluorescence intensity during 30 min on a Tecan microplate reader (Tecan infinite 200 pro, Tecan Trading AG, Switzerland) using black microfluor 96-well plate Nunc MicroWell (Thermo Fisher Scientific, Dreieich, Germany). The enzymatic reactions were performed at 25 °C under shacking with an excitation wavelength of 355 nm and an emission recording at 460 nm.
(§2) Apparent equilibrium constants Kiapps values were determined by non-linear regression analyses of Vi/V0 versus [I]0 using equation (2). The final Kis were subsequently determined by correcting for the competitive effect of the substrate [S]0 using equation (3). The kinetic constants Kms for the hydrolysis of fluorogenic substrate, catalysed by each protease, were determined by standard Michaelis-Menten equation. Values were determined using either OriginPro 8G software (OriginLab Corporation, Northamppton, MA, USA) or GraphPad Prism 8.0.0. software (GraphPad software, Inc., San Diego, California). […]

human plasma kallikrein = biological target: T3, human plasma kallikrein (Homo sapiens, UniProt P03952); assay: as above; format: biochemical; details: 25 °C, pH 7.4, Z-Phe-Arg-AMC 50 μM
T3 construct: purchased Innovative Research IHPKA
Description: as §1, §2

human plasmin = biological target: T4, human plasmin (Homo sapiens, UniProt P00747); assay: as above; format: biochemical; details: 25 °C, pH 7.4, H-D-Val-Leu-Lys-AMC 50 μM
T4 construct: Bachem; purchased Molecular Innovations HPLM
Description: as §1, §2

human tPA (htPA) = biological target: T5, human tPA (htPA) (Homo sapiens, UniProt P00750); assay: as above; format: biochemical; details: 25 °C, pH 7.4, Z-Gly-Gly-Arg-AMC 50 μM
T5 construct: purchased Molecular Innovations HTPATC
Description: as §1, §2

human thrombin = biological target: T6, human thrombin (Homo sapiens, UniProt P00734); assay: as above; format: biochemical; details: 25 °C, pH 7.4, Z-Gly-Gly-Arg-AMC 50 μM
T6 construct: human thrombin (IHT, Innovative Research,; purchased Innovative Research IHT
Description: as §1, §2

murine tPA (mtPA) = biological target: T7, murine tPA (mtPA) (Mus musculus, UniProt P11214); assay: as above; format: biochemical; details: 25 °C, pH 7.4, Z-Gly-Gly-Arg-AMC 50 μM
T7 construct: purchased Molecular Innovations MTPA
Description: as §1, §2

murine uPA (muPA) = biological target: T8, murine uPA (muPA) (Mus musculus, UniProt P06869); assay: as above; format: biochemical; details: 25 °C, pH 7.4, Z-Gly-Gly-Arg-AMC 50 μM
T8 construct: mouse uPA (MUPA-LMW,; purchased Molecular Innovations MUPA-LMW
Description: as §1, §2

[3] = pH 7.4, substrate 50 μM, mean ± S.E. of at least three measurements, read-out: Ki

T8 sequence (P06869 180-433 limits assumed): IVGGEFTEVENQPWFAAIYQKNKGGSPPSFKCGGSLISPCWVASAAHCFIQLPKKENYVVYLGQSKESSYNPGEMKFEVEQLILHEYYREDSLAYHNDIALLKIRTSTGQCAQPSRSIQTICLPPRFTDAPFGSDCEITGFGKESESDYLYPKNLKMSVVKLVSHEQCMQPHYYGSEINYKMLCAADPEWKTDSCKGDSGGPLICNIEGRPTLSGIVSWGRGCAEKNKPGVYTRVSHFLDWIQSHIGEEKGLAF
T8 sequence (P06869 157-178 partner limits assumed): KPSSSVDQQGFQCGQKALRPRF
T5 sequence (P00750 311-562 limits assumed): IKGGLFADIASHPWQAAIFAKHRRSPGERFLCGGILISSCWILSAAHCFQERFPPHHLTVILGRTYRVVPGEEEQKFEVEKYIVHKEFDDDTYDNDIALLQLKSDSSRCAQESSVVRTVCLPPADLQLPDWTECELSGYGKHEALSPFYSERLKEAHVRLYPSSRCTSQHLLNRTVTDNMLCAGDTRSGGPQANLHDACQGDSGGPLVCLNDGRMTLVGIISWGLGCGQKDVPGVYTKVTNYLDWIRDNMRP
T5 sequence (P00750 36-310 partner limits assumed): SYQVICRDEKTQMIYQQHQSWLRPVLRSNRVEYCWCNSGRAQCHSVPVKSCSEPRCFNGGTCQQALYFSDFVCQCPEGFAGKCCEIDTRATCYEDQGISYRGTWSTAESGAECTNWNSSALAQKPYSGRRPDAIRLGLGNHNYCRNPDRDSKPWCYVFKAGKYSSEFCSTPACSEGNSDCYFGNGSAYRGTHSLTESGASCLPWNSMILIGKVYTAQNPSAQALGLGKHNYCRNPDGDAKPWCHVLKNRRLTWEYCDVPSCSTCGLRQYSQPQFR
T7 sequence (P11214 33-559): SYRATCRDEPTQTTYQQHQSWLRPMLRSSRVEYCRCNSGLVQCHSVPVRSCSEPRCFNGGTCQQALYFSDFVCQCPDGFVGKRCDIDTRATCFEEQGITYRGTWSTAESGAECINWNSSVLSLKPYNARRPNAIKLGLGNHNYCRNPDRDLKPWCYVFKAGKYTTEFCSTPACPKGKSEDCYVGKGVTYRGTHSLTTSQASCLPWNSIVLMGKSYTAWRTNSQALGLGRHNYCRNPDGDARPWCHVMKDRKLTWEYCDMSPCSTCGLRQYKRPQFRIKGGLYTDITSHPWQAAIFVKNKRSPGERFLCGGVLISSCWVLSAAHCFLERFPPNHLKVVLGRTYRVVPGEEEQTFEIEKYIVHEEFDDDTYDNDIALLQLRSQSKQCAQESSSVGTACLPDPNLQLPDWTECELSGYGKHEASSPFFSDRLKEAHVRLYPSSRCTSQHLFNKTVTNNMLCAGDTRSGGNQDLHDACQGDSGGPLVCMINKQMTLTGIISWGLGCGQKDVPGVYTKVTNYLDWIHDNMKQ
T4 sequence (P00747 581-810 limits assumed): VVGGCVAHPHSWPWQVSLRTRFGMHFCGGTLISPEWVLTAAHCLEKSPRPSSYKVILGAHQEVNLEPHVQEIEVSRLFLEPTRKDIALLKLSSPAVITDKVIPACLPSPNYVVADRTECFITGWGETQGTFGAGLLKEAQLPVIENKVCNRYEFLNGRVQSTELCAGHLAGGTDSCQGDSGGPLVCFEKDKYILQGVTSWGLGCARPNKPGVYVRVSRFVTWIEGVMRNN
T4 sequence (P00747 97-580 partner limits assumed): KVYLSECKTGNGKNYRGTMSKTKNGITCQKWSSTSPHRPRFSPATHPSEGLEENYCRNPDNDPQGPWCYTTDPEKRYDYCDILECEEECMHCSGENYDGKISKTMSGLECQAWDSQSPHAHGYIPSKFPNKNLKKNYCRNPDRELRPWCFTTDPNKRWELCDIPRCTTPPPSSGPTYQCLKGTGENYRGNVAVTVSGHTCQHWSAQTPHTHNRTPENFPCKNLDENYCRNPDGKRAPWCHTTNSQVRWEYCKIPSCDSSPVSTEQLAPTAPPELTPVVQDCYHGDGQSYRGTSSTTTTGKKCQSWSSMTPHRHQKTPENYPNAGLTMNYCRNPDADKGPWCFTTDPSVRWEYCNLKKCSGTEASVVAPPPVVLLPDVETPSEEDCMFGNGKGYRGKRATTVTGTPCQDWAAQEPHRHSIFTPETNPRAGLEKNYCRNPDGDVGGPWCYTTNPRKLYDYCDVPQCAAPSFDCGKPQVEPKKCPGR
T3 sequence (P03952 391-638 limits assumed): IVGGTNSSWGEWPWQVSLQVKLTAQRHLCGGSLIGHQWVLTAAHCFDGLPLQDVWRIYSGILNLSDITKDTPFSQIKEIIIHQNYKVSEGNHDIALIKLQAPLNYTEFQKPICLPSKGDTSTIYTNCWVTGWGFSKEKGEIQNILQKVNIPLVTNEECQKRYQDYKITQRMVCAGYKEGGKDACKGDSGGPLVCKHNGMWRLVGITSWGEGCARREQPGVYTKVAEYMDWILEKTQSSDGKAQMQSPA
T3 sequence (P03952 20-390 partner limits assumed): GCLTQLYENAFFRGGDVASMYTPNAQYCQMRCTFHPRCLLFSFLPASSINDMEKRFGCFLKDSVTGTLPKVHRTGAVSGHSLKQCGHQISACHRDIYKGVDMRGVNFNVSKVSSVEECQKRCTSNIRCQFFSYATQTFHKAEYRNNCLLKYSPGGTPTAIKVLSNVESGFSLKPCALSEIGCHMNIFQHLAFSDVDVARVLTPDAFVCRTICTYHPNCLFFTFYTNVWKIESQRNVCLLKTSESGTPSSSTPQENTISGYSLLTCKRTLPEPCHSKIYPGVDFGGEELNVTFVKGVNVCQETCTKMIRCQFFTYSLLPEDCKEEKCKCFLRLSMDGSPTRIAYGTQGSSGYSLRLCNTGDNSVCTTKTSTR

Ki [1, 3]: 0.202 µM
SMILES: CC(C)[C@@H]1NC(=O)CNC(=O)[C@@H]2CSCc3cc(cc(c3)CSC[C@@H](C(=O)NCC(N)=O)NC(=O)[C@H](CO)NC(=O)[C@H](CO)NC(=O)[C@@H]3CCCN3C(=O)[C@H](CC(=O)O)NC1=O)CSC[C@H](NC(=O)[C@H](C)N)C(=O)N[C@@H](CC(N)=O)C(=O)N[C@@H](CO)C(=O)N[C@@H](CCCCN)C(=O)N[C@@H](Cc1ccccc1)C(=O)N[C@@H](CO)C(=O)NCC(=O)N2 [UK140, reference compound] (H-ACNSKFSGCGVDPSSCG-NH2; linker 2-9-16 via TBMB)
Ki [2]: 0.2 µM

Ki ([1]; pH 7.4, Z-Gly-Gly-Arg-AMC 50 μM, read-out: Ki ± S.E.): 0.004 ± 0.001 µM
Ki [1, 3]: 0.0043 ± 0.0001 µM
Ki (human factor XIIa): > 1000 µM
Ki (human plasma kallikrein): > 1000 µM
Ki (human plasmin): > 1000 µM
Ki (human tPA (htPA)): > 1000 µM
Ki (human thrombin): > 1000 µM
Ki (murine tPA (mtPA)): > 1000 µM
Ki (murine uPA (muPA)): > 1000 µM
SMILES: CC(C)[C@@H]1NC(=O)[C@H](Cc2ccccc2)NC(=O)[C@H](CCCNC(=N)N)NC(=O)[C@H](CO)NC(=O)[C@@H](NC(=O)[C@H](C)N)CSCc2cc3cc(c2)CSC[C@@H](C(=O)NCC(N)=O)NC(=O)[C@@H]2CCCN2C(=O)CNC(=O)CNC(=O)[C@H](CCCNC(=N)N)NC(=O)CNC(=O)[C@H](CCCNC(=N)N)NC(=O)[C@H](CSC3)NC(=O)[C@H](CC(=O)O)NC(=O)[C@H](C(C)C)NC1=O [UK970] (H-ACSRFVVDCRGRGGPCG-NH2; linker 2-9-16 via TBMB)

Ki [1, 3]: 0.0153 µM
SMILES: CC(C)[C@@H]1NC(=O)[C@H](Cc2ccccc2)NC(=O)[C@H](CCCNC(=N)N)NC(=O)[C@H](CO)NC(=O)[C@@H](NC(=O)[C@H](C)N)CSCc2cc3cc(c2)CSC[C@@H](C(=O)NCC(N)=O)NC(=O)[C@@H]2CCCN2C(=O)CNC(=O)CNC(=O)[C@H](CCCNC(=N)N)NC(=O)CNC(=O)[C@H](CCCNC(=N)N)NC(=O)[C@H](CSC3)NC(=O)[C@H](CC(=O)O)NC(=O)[C@H]([C@@H](C)O)NC1=O [UK973] (H-ACSRFVTDCRGRGGPCG-NH2; linker 2-9-16 via TBMB)

Ki [1, 3]: 0.363 µM
SMILES: CC(C)[C@@H]1NC(=O)CNC(=O)[C@@H]2CSCc3cc(cc(c3)CSC[C@@H](C(=O)NCC(N)=O)NC(=O)[C@H](CO)NC(=O)CNC(=O)[C@@H]3CCCN3C(=O)[C@H](CC(=O)O)NC1=O)CSC[C@H](NC(=O)[C@H](C)N)C(=O)N[C@@H](CC(N)=O)C(=O)N[C@@H](CO)C(=O)N[C@@H](CCCCN)C(=O)N[C@@H](Cc1ccccc1)C(=O)N[C@@H](CO)C(=O)NCC(=O)N2 [UK974] (H-ACNSKFSGCGVDPGSCG-NH2; linker 2-9-16 via TBMB)

Ki [1, 3]: 0.874 µM
SMILES: CC(C)[C@@H]1NC(=O)CNC(=O)[C@@H]2CSCc3cc(cc(c3)CSC[C@@H](C(=O)NCC(N)=O)NC(=O)[C@H](CC(=O)O)NC(=O)CNC(=O)[C@@H]3CCCN3C(=O)[C@H](CC(=O)O)NC1=O)CSC[C@H](NC(=O)[C@H](C)N)C(=O)N[C@@H](CC(N)=O)C(=O)N[C@@H](CO)C(=O)N[C@@H](CCCCN)C(=O)N[C@@H](Cc1ccccc1)C(=O)N[C@@H](CO)C(=O)NCC(=O)N2 [UK975] (H-ACNSKFSGCGVDPGDCG-NH2; linker 2-9-16 via TBMB)

Ki [1, 3]: 0.119 ± 0.0009 µM
SMILES: CC(C)[C@@H]1NC(=O)CNC(=O)[C@@H]2CSCc3cc(cc(c3)CSC[C@@H](C(=O)NCC(N)=O)NC(=O)[C@H](CC(=O)O)NC(=O)[C@H](CO)NC(=O)[C@@H]3CCCN3C(=O)[C@H](CC(=O)O)NC1=O)CSC[C@H](NC(=O)[C@H](C)N)C(=O)N[C@@H](CC(N)=O)C(=O)N[C@@H](CO)C(=O)N[C@@H](CCCCN)C(=O)N[C@@H](Cc1ccccc1)C(=O)N[C@@H](CO)C(=O)NCC(=O)N2 [UK976] (H-ACNSKFSGCGVDPSDCG-NH2; linker 2-9-16 via TBMB)

Ki [1, 3]: 0.157 ± 0.0011 µM
SMILES: CC(C)[C@@H]1NC(=O)CNC(=O)[C@@H]2CSCc3cc(cc(c3)CSC[C@@H](C(=O)NCC(N)=O)NC(=O)[C@H](CCC(=O)O)NC(=O)CNC(=O)[C@@H]3CCCN3C(=O)[C@H](CC(=O)O)NC1=O)CSC[C@H](NC(=O)[C@H](C)N)C(=O)N[C@@H](CC(N)=O)C(=O)N[C@@H](CO)C(=O)N[C@@H](CCCCN)C(=O)N[C@@H](Cc1ccccc1)C(=O)N[C@@H](CO)C(=O)NCC(=O)N2 [UK977] (H-ACNSKFSGCGVDPGECG-NH2; linker 2-9-16 via TBMB)

Ki [1, 3]: 0.072 ± 0.0007 µM
Ki (murine uPA (muPA)): 1.7 µM
SMILES: CC(C)[C@@H]1NC(=O)CNC(=O)[C@@H]2CSCc3cc(cc(c3)CSC[C@@H](C(=O)NCC(N)=O)NC(=O)[C@H](CCC(=O)O)NC(=O)[C@H](CO)NC(=O)[C@@H]3CCCN3C(=O)[C@H](CC(=O)O)NC1=O)CSC[C@H](NC(=O)[C@H](C)N)C(=O)N[C@@H](CC(N)=O)C(=O)N[C@@H](CO)C(=O)N[C@@H](CCCCN)C(=O)N[C@@H](Cc1ccccc1)C(=O)N[C@@H](CO)C(=O)NCC(=O)N2 [UK978] (H-ACNSKFSGCGVDPSECG-NH2; linker 2-9-16 via TBMB)
